# Test results as given in patent US6582714B1, “Article for insert control by passive evaporation of an active ingredient” (priority 1995, dated 2003).
# Tested on: A. aegypti mosquitoes
# Experiment: Chamber test, second series (small blower, 0.06 m^3 per minute)
# Type: in vivo
# Conditions: 0.072 gm applied directly to the nine blades of the small blower; 0.06 m^3 per minute; two hour testing period
# Text: (§1) The chamber test protocol was developed to realistically model actual use conditions for the insect control article of the invention. A closed, generally featureless, approximately 28 m^3, box-like test chamber is used, the size of a small room. Six mosquito knock-down cages are distributed vertically within the test chamber, suspended from poles adjacent to opposite test chamber side walls, where they can be observed from outside the test chamber through chamber windows. Mosquitoes in the cages are observed during a test to evaluate the ability of a material being tested to knock down mosquitoes. An insect “knocked down” is one that is incapable of flying and usually is moribund in appearance. The insect may or may not actually be dead. The knock-down cages are cylindrical, approximately 6 cm long and 8 cm in diameter, and have screened but otherwise open ends.
# (§2) Two repellency mosquito cages are also provided. The repellency cages are box-like screened cages, approximately 73 cm long and 16 cm square in cross section. All of the walls of the repellency cages are screened but otherwise generally open. Each repellency cage is divided by a clear plastic partition into a first holding area, which occupies approximately 45 cm of the length of the cage, and a second holding area, which occupies the remaining 28 cm. The plastic partition has a 4 cm diameter hole in its center that provides the only route by which mosquitoes may pass between the two holding areas. The repellency cages are mounted in a test chamber wall, with the plastic partition located in the plane of the test chamber wall, and are so oriented that the first holding area projects inwardly, into the test chamber, while the second holding area projects through the test chamber wall, out into normal room air.
# (§3) A mouse cage essentially identical to a mosquito knock-down cage is mounted on the end of the first holding chamber of each repellency test cage that faces toward the interior of the test chamber. The mouse cage is separated from the repellency cage only by a mosquito-proof screen. One mouse is placed in the mouse cage during a test to provide an attractant for mosquitoes being held in the repellency test cage. Mosquitoes in the first holding area of a repellency cage thus are attracted toward the mouse, on the one hand, and repelled by the insect control article being tested, on the other hand.
# (§4) When a test is run, fifty female mosquitoes are placed in the first holding area of each mosquito cage, with the partition hole closed by a removable door. Ten female mosquitoes are placed in each knock-down cage. The insect control article to be tested is placed centrally within the test chamber and the air flow is initiated. At timed intervals up to a total testing period of two hours, each knock-down cage and each repellency cage is visually examined, and the location, number, and condition of the mosquitoes are noted. The number of mosquitoes that have been driven to the second holding area provides a measure of the repellency of the insect control article being tested. The number of mosquitoes knocked down in the knock-down cages is also recorded. The general success of an insect control article is judged by both the mosquitoes repelled and those knocked down, in that both effects reduce the total number of mosquitoes available for biting.
# In an additional series of tests using the chamber protocol, two insect control active ingredients were tested for their ability to achieve the preferred practical control level, defined above. The experiment of the first series was substantially repeated except that the substrate was a 0.5 cm thick, 4.5 cm diameter coil of common corrugated cardboard, with the channels of the corrugation presented endwardly to the direction of air flow. […]
Structure (SMILES),KD50,RD50,RD90
CC1(C)[C@H](C=C(Cl)Cl)[C@H]1C(=O)OCc1c(F)c(F)cc(F)c1F [Transfluthrin],never achieved,never achieved,never achieved

# Same assay, conditions: 0.5 cm thick, 4.5 cm diameter corrugated cardboard coil; blower 0.06 m^3 per minute; two hour test; NA = not achieved
Structure (SMILES),Minutes to RD50,Minutes to KD50,Minutes to RD90
C#CCC1=C(C)C(OC(=O)C2C(C=C(C)C)C2(C)C)CC1=O (centres unmarked) [Prallethrin],failed to achieve,–,–
CC1(C)[C@H](C=C(Cl)Cl)[C@H]1C(=O)OCc1c(F)c(F)cc(F)c1F [Transfluthrin],30 min,20 min,80 min

# Tested on: A. aegypti mosquitoes
# Experiment: Chamber test, first series (box fan), mosquito repellency and knock-down
# Type: in vivo
# Conditions: at least 50% repellency within 20 minutes with not more than a gram
# Text: as §1, §2, §3, §4
# Two series of tests were run using the chamber test protocol to evaluate the effect of insect control articles made in accordance with the invention. […]
row,Structure (SMILES),practical insect control as defined (minimum practical control standard)
1,COP(=O)(OC)OC=C(Cl)Cl [DDVP],achieved
2,C=CCC1=C(C)C(OC(=O)[C@@H]2[C@@H](C=C(C)C)C2(C)C)CC1=O (some centres unmarked) [Esbiothrin],achieved
3,C#CCC1=C(C)C(OC(=O)C2C(C=C(C)C)C2(C)C)CC1=O (centres unmarked) [Prallethrin],achieved
4,CC1(C)[C@H](C=C(Cl)Cl)[C@H]1C(=O)OCc1c(F)c(F)cc(F)c1F [Transfluthrin],achieved
5,C#CC(OC(=O)C1C(C=C(C)C)C1(C)C)/C(C)=C/CC (centres unmarked) [Vaporthrin],achieved

# Tested on: A. aegypti mosquitoes
# Experiment: Olfactometer test (repellency from target air stream)
# Type: in vivo
# Conditions: dose at which 90% of control population driven from target; 28 x 10 cm filter paper; female mosquitoes
# Text: The olfactometer test provides a means for measuring the effect of a volatile active ingredient on flying insects under precisely controlled conditions. Mosquitoes are used as the test insect. In this and the other Examples, below, the mosquitoes were A. aegypti. The olfactometer used for the olfactory tests described below generates two uniform, laminar flow air streams. These air streams consist of a target air stream superimposed upon and centered within a carrier air stream.
# The olfactometer provides a square testing surface with an area of 929 cm^2. The testing area consists of a circular target area of 42 cm^2 centered on a square background surface area of 887 cm^2. In the tests described, a 200 ml/min flow of carbon dioxide was introduced into the carrier air stream to activate the mosquitoes. […] The flow rate of the carrier air stream was 300 to 350 liters/min. […] Elevated temperature and humidity at the level described for the target air stream are known to be attractive to mosquitoes. The flow rate of the target air stream was 12 liters/min.
# The olfactometer has an air flow duct through which the carrier air flow strewn passes. A glass cylinder having one closed and one open end, an internal diameter of 6 cm and a depth of 14 cm is located within the air flow duct, with the longitudinal axis of the glass cylinder oriented parallel to the direction of flow of the carrier air flow stream, with the open end of the cylinder pointing down stream. The target air stream is generated by releasing a flow of temperature and humidity conditioned air into the glass cylinder near its closed end, from which point the air flows the length of the glass cylinder to exit at its open end.
# Active insect control ingredients to be tested are impregnated in a filter paper test substrate (Grade 615 from VWR Scientific Inc.) having a length of 28 cm and a width of 10 cm. The filter paper test substrate is folded into a fluted cylinder and inserted coaxially within the glass cylinder to rest at a location between the point where the air is released into the glass cylinder and the open end of the glass cylinder. By this arrangement, the target air stream is caused to pass over the surface of the filter paper test substrate so that any active insect control ingredient present in the filter paper test substrate may evaporate into the target air stream before the target air stream exits the glass cylinder to continue, embedded within the flow of the carrier air stream.
# Cubic test cages having 30.5 cm edges were constructed of four glass panels, with two opposing sides of the cubic test cages being open. One open side was designated the test panel and was covered with an airflow-transmitting, mosquito-retaining mesh. The opposite open side was covered with a closeable sleeve made of a tubular, open-weave, mosquito-retaining fabric well known in the art as “stockinet.” For any given test, the test cage normally contained from 250 to 350 female mosquitoes.
# The test cage was placed in the air stream with the test panel facing and perpendicular to the direction of flow of the air streams of the olfactometer. In order to allow the mosquitoes to become activated by the carbon dioxide of the air streams, the test cage first was placed in the olfactometer for an initial 5 minute conditioning exposure. The test cage then was removed from the olfactometer for 3 minutes and then placed back in the olfactometer for a second 5 minute conditioning exposure. The test cage was again removed from the olfactometer for 3 minutes, during which time a control filter paper test substrate was inserted within the glass cylinder of the olfactometer. The test cage was then placed on the olfactometer for a 10 minute control exposure. The same procedure was repeated, using each time a filter paper test substrate impregnated with increasing amounts of active insect control ingredient. […]
row,Structure (SMILES),mg to reach RD90
1,Cc1c(F)c(F)c(COC(=O)[C@@H]2[C@H](/C=C(\Cl)C(F)(F)F)C2(C)C)c(F)c1F (racemic) [Tefluthrin],1.3 milligrams/filter paper test substrate
2,"C=CCC1=C(C)C(OC(=O)C2C(C=C(C)C)C2(C)C)CC1=O (centres unmarked) [Allethrin (90% active), Allethrin]",8.0 milligrams/filter paper test substrate
3,COP(=O)(OC)OC=C(Cl)Cl [DDVP],40 milligrams/filter paper test substrate
4,C=CCC1=C(C)C(OC(=O)[C@@H]2[C@@H](C=C(C)C)C2(C)C)CC1=O (some centres unmarked) [Esbiothrin],4.5 milligrams/filter paper test substrate
5,C#CCC1=C(C)C(OC(=O)C2C(C=C(C)C)C2(C)C)CC1=O (centres unmarked) [Prallethrin],5.5 milligrams/filter paper test substrate
6,CC1(C)[C@H](C=C(Cl)Cl)[C@H]1C(=O)OCc1c(F)c(F)cc(F)c1F [Transfluthrin],0.57 milligrams/filter paper test substrate
7,C#CC(OC(=O)C1C(C=C(C)C)C1(C)C)/C(C)=C/CC (centres unmarked) [Vaporthrin],5.3 milligrams/filter paper test substrate

# Same assay, conditions: ratio of weight of ingredient versus weight of DEET to achieve RD90; 25° C.
row,Structure (SMILES),WEIGHT INDEX
1,Cc1c(F)c(F)c(COC(=O)[C@@H]2[C@H](/C=C(\Cl)C(F)(F)F)C2(C)C)c(F)c1F (racemic) [Tefluthrin],0.014
2,"C=CCC1=C(C)C(OC(=O)C2C(C=C(C)C)C2(C)C)CC1=O (centres unmarked) [Allethrin (90% active), Allethrin]",0.085
3,COP(=O)(OC)OC=C(Cl)Cl [DDVP],0.42
4,C=CCC1=C(C)C(OC(=O)[C@@H]2[C@@H](C=C(C)C)C2(C)C)CC1=O (some centres unmarked) [Esbiothrin],0.047
5,C#CCC1=C(C)C(OC(=O)C2C(C=C(C)C)C2(C)C)CC1=O (centres unmarked) [Prallethrin],0.058
6,CC1(C)[C@H](C=C(Cl)Cl)[C@H]1C(=O)OCc1c(F)c(F)cc(F)c1F [Transfluthrin],0.0059
7,C#CC(OC(=O)C1C(C=C(C)C)C1(C)C)/C(C)=C/CC (centres unmarked) [Vaporthrin],0.058

# Tested on: A. aegypti mosquitoes
# Experiment: Activity index calculation (volatility index x weight index)
# Conditions: volatility index multiplied by weight index; DEET = 1.00
# Experimental: The “activity index” is obtained by the multiplying the volatility index and the weight index. The activity index is an attempt to predict the combined effect of volatility and potency by weight in the usefulness of an insect control active ingredient for insect control of flying insects by passive evaporation. The following activity indices were calculated from the volatility and weight indices given, above: […]
row,Structure (SMILES),ACTIVITY INDEX
1,Cc1c(F)c(F)c(COC(=O)[C@@H]2[C@H](/C=C(\Cl)C(F)(F)F)C2(C)C)c(F)c1F (racemic) [Tefluthrin],0.011
2,"C=CCC1=C(C)C(OC(=O)C2C(C=C(C)C)C2(C)C)CC1=O (centres unmarked) [Allethrin (90% active), Allethrin]",0.0095
3,COP(=O)(OC)OC=C(Cl)Cl [DDVP],0.60
4,C=CCC1=C(C)C(OC(=O)[C@@H]2[C@@H](C=C(C)C)C2(C)C)CC1=O (some centres unmarked) [Esbiothrin],0.0146
5,C#CCC1=C(C)C(OC(=O)C2C(C=C(C)C)C2(C)C)CC1=O (centres unmarked) [Prallethrin],0.0020
6,CC1(C)[C@H](C=C(Cl)Cl)[C@H]1C(=O)OCc1c(F)c(F)cc(F)c1F [Transfluthrin],0.00002
7,C#CC(OC(=O)C1C(C=C(C)C)C1(C)C)/C(C)=C/CC (centres unmarked) [Vaporthrin],0.033

# Tested on: not listed separately
# Experiment: Volatility index calculation (concentration in air from vapor pressure)
# Type: physicochemical
# Conditions: calculated from vapor pressure by ideal gas equation; 20 to 25° C.
row,Structure (SMILES),CONCENTRATION IN AIR
1,Cc1c(F)c(F)c(COC(=O)[C@@H]2[C@H](/C=C(\Cl)C(F)(F)F)C2(C)C)c(F)c1F (racemic) [Tefluthrin],1.37 × 10^−5 grams per liter
2,"C=CCC1=C(C)C(OC(=O)C2C(C=C(C)C)C2(C)C)CC1=O (centres unmarked) [Allethrin (90% active), Allethrin]",1.92 × 10^−6 grams per liter
3,COP(=O)(OC)OC=C(Cl)Cl [DDVP],2.63 × 10^−5 grams per liter
4,C=CCC1=C(C)C(OC(=O)[C@@H]2[C@@H](C=C(C)C)C2(C)C)CC1=O (some centres unmarked) [Esbiothrin],5.35 × 10^−6 grams per liter
5,C#CCC1=C(C)C(OC(=O)C2C(C=C(C)C)C2(C)C)CC1=O (centres unmarked) [Prallethrin],5.80 × 10^−7 grams per liter
6,CC1(C)[C@H](C=C(Cl)Cl)[C@H]1C(=O)OCc1c(F)c(F)cc(F)c1F [Transfluthrin],6.09 × 10^−8 grams per liter
7,C#CC(OC(=O)C1C(C=C(C)C)C1(C)C)/C(C)=C/CC (centres unmarked) [Vaporthrin],9.75 × 10^−6 grams per liter

# Same assay, conditions: concentration in the air relative to DEET at 20 to 25° C.
row,Structure (SMILES),VOLATILITY INDEX
1,Cc1c(F)c(F)c(COC(=O)[C@@H]2[C@H](/C=C(\Cl)C(F)(F)F)C2(C)C)c(F)c1F (racemic) [Tefluthrin],0.797
2,"C=CCC1=C(C)C(OC(=O)C2C(C=C(C)C)C2(C)C)CC1=O (centres unmarked) [Allethrin (90% active), Allethrin]",0.112
3,COP(=O)(OC)OC=C(Cl)Cl [DDVP],1.53
4,C=CCC1=C(C)C(OC(=O)[C@@H]2[C@@H](C=C(C)C)C2(C)C)CC1=O (some centres unmarked) [Esbiothrin],0.311
5,C#CCC1=C(C)C(OC(=O)C2C(C=C(C)C)C2(C)C)CC1=O (centres unmarked) [Prallethrin],0.034
6,CC1(C)[C@H](C=C(Cl)Cl)[C@H]1C(=O)OCc1c(F)c(F)cc(F)c1F [Transfluthrin],0.0035
7,C#CC(OC(=O)C1C(C=C(C)C)C1(C)C)/C(C)=C/CC (centres unmarked) [Vaporthrin],0.567
